Read-outs that look alike come from different tables or passages of the source.
Columns and labels:
[1] = system: NF-κB pathway, THP1-Dual™ cells; assay: STING reporter assay in THP1-Dual cells, NF-κB pathway (SEAP, QUANTI-Blue); assay type: cell-based, human; conditions: read-out: NFkB (EC50 μM)
In short: (§1)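 Activation normalised between DMSO-only baseline and 100 μM cGAMP maximum, after 20 h compound exposure (starting at 100 μM final) at 37° C, 5% CO2. Supernatant SEAP (QUANTI-Blue, OD620) reports NF-κB; secreted luciferase (QUANTI-Luc, RLU at 5 min) reports IRF.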

[2] = system: IRF pathway, THP1-Dual™ cells; assay: STING reporter assay in THP1-Dual cells, IRF pathway (Lucia luciferase, QUANTI-Luc); assay type: cell-based, human; conditions: read-out: IRF (EC50 μM)
In short: as §1

[3] = Homo sapiens, THP1-Dual, 20 h, THP1-Dual cells, 10% human plasma, 20 hours, SEAP, 100% activation = 100 μM cGAMP
[4] = Homo sapiens, THP1-Dual, 20 h, THP1-Dual cells, 10% human plasma, 20 hours, Lucia luciferase, 100% activation = 100 μM cGAMP
[5] = THP1-Dual cells, 10% human plasma, 20 hours, SEAP, 100% activation = 100 μM cGAMP
[6] = THP1-Dual cells, 10% human plasma, 20 hours, Lucia luciferase, 100% activation = 100 μM cGAMP

SMILES | EC50 [1, 3] [µM] | EC50 [2, 4] [µM] | further results
COC(=O)c1cc(F)cc2cc([C@H](C)NC(=O)c3cnn4cccnc34)oc12 [EXAMPLE 46, Methyl (S)-5-fluoro-2-(1-(pyrazolo[1,5-a]pyrimidine-3-carboxamido)ethyl)benzofuran-7-carboxylate] | 1.5 | 1.5 | –
COC(=O)c1cc(Cl)cc2cc(CNC(=O)c3cnc4cccnn34)oc12 [Example 52, Methyl 5-chloro-2-((imidazo[1,2-b]pyridazine-3-carboxamido)methyl) benzofuran-7-carboxylate] | – | – | EC50 [1, 5]: 9.8 µM; EC50 [2, 6]: 8 µM
O=C(OC1CCCC1)c1cc(Cl)cc2cc(CNC(=O)c3cnn4cccnc34)oc12 [EXAMPLE 243, Cyclopentyl 5-chloro-2-((pyrazolo[1,5-a]pyrimidine-3-carboxamido)methyl)benzofuran-7-carboxylate] | 1.9 | 1.6 | –
CC(C)OC(=O)c1ccc(F)c2cc(CNC(=O)c3cnn4cccnc34)oc12 [EXAMPLE 224, Isopropyl 4-fluoro-2-((pyrazolo[1,5-a]pyrimidine-3-carboxamido)methyl)benzofuran-7-carboxylate] | 4 | 5.9 | –
CC(=O)OCOC(=O)c1cc(Cl)cc2cc(CNC(=O)c3cnn4cccnc34)oc12 [EXAMPLE 259, Acetoxymethyl 5-chloro-2-((13yrazole[1,5-a]pyrimidine-3-carboxamido)methyl)benzofuran-7-carboxylate] | 2.2 | 2.3 | –
CSC(=O)c1cc(Cl)cc2c(Cl)c([C@H](C)NC(=O)c3cnn4cccnc34)oc12 [EXAMPLE 402] | 2.4 | 2.4 | –
COC(=O)c1cccc2cc(CNC(=O)c3cncc4cccnc34)oc12 [EXAMPLE 14, Methyl 2-((1,6-naphthyridine-8-carboxamido)methyl)benzofuran-7-carboxylate] | 6 | 3.8 | –
C[Si](C)(C)CCSC(=O)c1cc(Cl)cc2cc(CNC(=O)c3cnn4cccnc34)oc12 [EXAMPLE 394] | – | – | EC50 ([1]; Homo sapiens, THP1-Dual, 20 h): 11 µM; EC50 ([2]; Homo sapiens, THP1-Dual, 20 h): > 100 µM
O=C(OCC(F)(F)F)c1cc(Cl)cc2c(Cl)c(CNC(=O)c3cnn4cccnc34)oc12 [EXAMPLE 294, 2,2,2-Trifluoroethyl 3,5-dichloro-2-((pyrazolo[1,5-a]pyrimidine-3-carboxamido)methyl)benzofuran-7-carboxylate] | 0.93 | 0.8 | –
O=C(OC1CCCCC1)c1cc(Cl)cc2cc(CNC(=O)c3cnn4cccnc34)oc12 [EXAMPLE 244, Cyclohexyl 5-chloro-2-((pyrazolo[1,5-a]pyrimidine-3-carboxamido)methyl)benzofuran-7-carboxylate] | 1.9 | 2 | –
C[C@@H](OC(=O)Cc1cc(F)cc2cc(CNC(=O)c3cnn4cccnc34)oc12)C(F)(F)F [EXAMPLE 367, (R)-1,1,1-Trifluoropropan-2-yl 2-(5-fluoro-2-((pyrazolo[1,5-a]pyrimidine-3-carboxamido)methyl)benzofuran-7-yl)acetate] | 9.5 | 7.5 | –
O=C(OC1CC(F)(F)C1)c1cc(F)cc2cc(CNC(=O)c3cnn4cccnc34)oc12 [EXAMPLE 236, 3,3-Difluorocyclobutyl 5-fluoro-2-((pyrazolo[1,5-a]pyrimidine-3-carboxamido)methyl)benzofuran-7-carboxylate] | 1.8 | 1.3 | –
Cc1cc(C(N)=O)c2oc(CNC(=O)c3cnn4cccnc34)cc2c1 [EXAMPLE 404, N-((7-Carbamoyl-5-methylbenzofuran-2-yl)methyl)pyrazolo[1,5-a]pyrimidine-3-carboxamide] | 83 | > 100 | –
COC(=O)c1cccc2cc(CNC(=O)c3cnn4c(C)ccnc34)oc12 [EXAMPLE 12, Methyl 2-((7-methylpyrazolo[1,5-a]pyrimidine-3-carboxamido)methyl) benzofuran-7-carboxylate] | – | – | EC50 [1, 5]: 39 µM; EC50 [2, 6]: 33 µM
COc1ccn2ncc(C(=O)NCc3cc4cc(Cl)cc(C(=O)OC(C)C(F)(F)F)c4o3)c2n1 (single isomer, unassigned) [EXAMPLE 368, 1,1,1-Trifluoropropan-2-yl 5-chloro-2-((5-methoxypyrazolo[1,5-a]pyrimidine-3-carboxamido)methyl)benzofuran-7-carboxylate] | 11 | 11 | –
Cc1cc(C(=O)O[C@H](C)C(F)(F)F)c2oc(C(C)NC(=O)c3cnn4cccnc34)cc2c1 (stereo partly drawn) [EXAMPLE 276, (R)-1,1,1-Trifluoropropan-2-yl 5-methyl-2-(1-(pyrazolo[1,5-a]pyrimidine-3-carboxamido)ethyl)benzofuran-7-carboxylate] | 3.4 | 3 | –
C[C@H](NC(=O)c1cnn2cccnc12)c1cc2cc(Cl)cc(C(=O)OC3CC(F)(F)C3)c2o1 [EXAMPLE 267, 3,3-Difluorocyclobutyl (S)-5-chloro-2-(1-(pyrazolo[1,5-a]pyrimidine-3-carboxamido)ethyl)benzofuran-7-carboxylate] | 6.6 | 5.8 | –

SMILES | EC50 [1, 3] [µM] | EC50 [2, 4] [µM] | further results
COC(OC(=O)c1cc(F)cc2cc(CNC(=O)c3cnn4cccnc34)oc12)C(F)(F)F (single isomer, unassigned) [EXAMPLE 320, 2,2,2-Trifluoro-1-methoxyethyl 5-fluoro-2-((pyrazolo[1,5-a]pyrimidine-3-carboxamido)methyl)benzofuran-7-carboxylate] | – | – | EC50 [1, 5]: 1.4 µM; EC50 [2, 6]: 1.4 µM
CSC(=O)c1cc(Cl)cc2c(Cl)c(CNC(=O)c3cnn4cccnc34)oc12 [EXAMPLE 396] | 0.37 | 0.36 | –
O=C(OC1COC1)c1cc(F)cc2cc(CNC(=O)c3cnn4cccnc34)oc12 [EXAMPLE 233, Oxetan-3-yl 5-fluoro-2-((pyrazolo[1,5-a]pyrimidine-3-carboxamido)methyl)benzofuran-7-carboxylate] | 2 | 1.7 | –
CSC(=O)c1cc(F)cc2cc(Cn3cnc4ccncc4c3=O)oc12 [EXAMPLE 385, S-Methyl 5-fluoro-2-((4-oxopyrido[4,3-d]pyrimidin-3(4H)-yl)methyl)benzofuran-7-carbothioate] | 2.5 | 2.1 | –
O=C(OC1CNC1)c1cc(Cl)cc2cc(CNC(=O)c3cnn4cccnc34)oc12 [EXAMPLE 248, Azetidin-3-yl 5-chloro-2-((pyrazolo[1,5-a]pyrimidine-3-carboxamido)methyl)benzofuran-7-carboxylate] | 98 | 73 | –
COC(=O)c1cccc2cc(Cn3cnc4ccncc4c3=O)oc12 [EXAMPLE 6, Methyl 2-((4-oxopyrido[4,3-d]pyrimidin-3(4H)-yl)methyl)benzofuran-7-carboxylate] | 3.1 | 5.1 | –
COC(=O)Cc1cccc2cc(CNC(=O)c3cnn4cccnc34)oc12 [EXAMPLE 20, Methyl 2-(2-((pyrazolo[1,5-a]pyrimidine-3-carboxamido)methyl)benzofuran-7-yl)acetate] | 49 | 48 | –
Cc1ccc(C(=O)OCC(F)(F)F)c2oc(CN3CCc4ccncc4C3=O)cc12 [EXAMPLE 361] | 7.2 | 5.5 | –
O=C(OCC(F)(F)C(F)(F)CO)c1cc(Cl)cc2cc(CNC(=O)c3cnn4cccnc34)oc12 [EXAMPLE 251, 2,2,3,3-Tetrafluoro-4-hydroxybutyl 5-chloro-2-((pyrazolo[1,5-a]pyrimidine-3-carboxamido)methyl)benzofuran-7-carboxylate] | 1 | 0.93 | –
COC(=O)c1cc(Br)cc2cc(CN3Cc4ccncc4C3=O)oc12 [Example 82, Methyl 5-bromo-2-((3-oxo-1,3-dihydro-2H-pyrrolo[3,4-c]pyridin-2-yl)methyl)benzofuran-7-carboxylate] | 20 | 27 | –
COC(=O)c1cc(Cl)cc2c(C(F)(F)F)c(CNC(=O)c3cnn4cccnc34)oc12 [EXAMPLE 116, Methyl 5-chloro-2-((pyrazolo[1,5-a]pyrimidine-3-carboxamido)methyl)-3-(trifluoromethyl)benzofuran-7-carboxylate] | 3.1 | 2.9 | –
COC(=O)c1cc(Cl)cc2c(Cl)c(CNC(=O)c3cncc4cccnc34)oc12 [EXAMPLE 113, methyl 2-((1,6-naphthyridine-8-carboxamido)methyl)-3,5-dichlorobenzofuran-7-carboxylate] | 0.51 | 0.32 | –
Cc1cc(CC(=O)O[C@H](C)C(F)(F)F)c2oc(CNC(=O)c3cnn4cccnc34)cc2c1 [EXAMPLE 279, (R)-1,1,1-Trifluoropropan-2-yl 2-(5-methyl-2-((pyrazolo[1,5-a]pyrimidine-3-carboxamido)methyl)benzofuran-7-yl)acetate] | 25 | 35 | –
O=C(OCCCN1CCOCC1)c1cc(Cl)cc2cc(CNC(=O)c3cnn4cccnc34)oc12 [EXAMPLE 256, 3-Morpholinopropyl 5-chloro-2-((pyrazolo[1,5-a]pyrimidine-3-carboxamido)methyl)benzofuran-7-carboxylate] | 4.8 | 6.7 | –
COC(=O)c1cc(Cl)cc2cc(CNC(=O)c3cncc(Cl)n3)oc12 [Example 61, Methyl 5-chloro-2-((6-chloropyrazine-2-carboxamido)methyl) benzofuran-7-carboxylate] | – | – | EC50 [1, 5]: 21 µM; EC50 [2, 6]: 21 µM
O=C(OCC(F)(F)F)c1cc(F)c(F)c2cc(CNC(=O)c3cnn4cccnc34)oc12 [EXAMPLE 226] | 1.3 | 1.4 | –

Reference: patent US12673954B2 (BRISTOL-MYERS SQUIBB COMPANY, priority 2021, dated 2026)
